Residues, ends and D or L forms follow the SMILES beside them.
System: differentiated primary human airway epithelial cells
Assay: Co-culture model: epithelial cell toxicity by transepithelial resistance
Assay type: cell-based
Settings: at a decrease in bacterial counts by two orders of magnitude, Figure 9
Source text: The antimicrobial peptides of the invention display selective toxicity to target microorganisms and minimal toxicity to mammalian cells. Determining the toxicity of the peptides claimed in this invention on mammalian cells is preferably performed using tissue culture assays. For mammalian cells, such assay methods include, inter alia, trypan blue exclusion and MTT assays (see Moore et al., 1994, Peptide Research 7:265-269). […] In addition, the disruption of the transepithelial resistance (Rte) of a cell monolayer that have formed tight junctions can be monitored. […]
Preparation of eukaryotic cells. […] In order to release viable bacteria, trypsin/EDTA was added and these preparations were plated on standard bacteriologic media to quantify bacterial survival. Similarly prepared cells were monitored for peptide toxicity by measuring transepithelial resistance. […]
Based on above in vitro findings, WLSA-5 (SEQ ID NO:3) was tested in a scenario that more accurately assessed its selective toxicity. […] The ability of peptide to kill bacteria is monitored as a function of viable bacteria associated with the epithelial cells after peptide exposure. […]

CC[C@H](C)[C@H](NC(=O)[C@H](C)NC(=O)[C@H](CCCNC(=N)N)NC(=O)[C@H](CS)NC(=O)[C@H](Cc1c[nH]c2ccccc12)NC(=O)[C@H](CCCNC(=N)N)NC(=O)[C@H](CCC(N)=O)NC(=O)[C@@H](NC(=O)[C@@H](NC(=O)[C@H](CCCNC(=N)N)NC(=O)[C@@H](NC(=O)[C@H](Cc1c[nH]c2ccccc12)NC(=O)[C@@H](N)CCCNC(=N)N)[C@@H](C)CC)C(C)C)C(C)C)C(=O)N[C@@H](CCCNC(=N)N)C(=O)N[C@@H](Cc1c[nH]cn1)C(=O)N[C@H](C(=O)N[C@@H](Cc1c[nH]c2ccccc12)C(=O)N[C@@H](CCCNC(=N)N)C(=O)N[C@@H](CCCNC(=N)N)C(=O)N[C@H](C(=O)N[C@@H](CCCNC(=N)N)C(=O)N[C@@H](CCC(N)=O)C(=O)NCC(=O)N[C@@H](CC(C)C)C(=O)N[C@@H](CCCNC(=N)N)C(=O)N[C@@H](CCCNC(=N)N)C(=O)N[C@@H](Cc1c[nH]c2ccccc12)C(=O)N[C@@H](CC(C)C)C(=O)N[C@@H](CCCNC(=N)N)C(=O)N[C@H](C(=O)N[C@H](C(=O)O)C(C)C)C(C)C)[C@@H](C)CC)[C@@H](C)CC [WLSA-5] (H-RWIRVVQRWCRAIRHIWRRIRQGLRRWLRVV-OH)
change in transepithelial resistance: less than 50%

— patent EP1368050B1, “VIRUS DERIVED ANTIMICROBIAL PEPTIDES” (priority 2001, dated 2008)
